This note sets out measurements from ChEMBL document CHEMBL3991601, “The target landscape of clinical kinase drugs” (Science, 2017).

Molecules are shown by their SMILES. Active and inactive are the calls of the source.

Assay [1] has as its target T1, Peroxisomal acyl-coenzyme A oxidase 3 (Homo sapiens, UniProt O15254).
T1 sequence (O15254 whole entry): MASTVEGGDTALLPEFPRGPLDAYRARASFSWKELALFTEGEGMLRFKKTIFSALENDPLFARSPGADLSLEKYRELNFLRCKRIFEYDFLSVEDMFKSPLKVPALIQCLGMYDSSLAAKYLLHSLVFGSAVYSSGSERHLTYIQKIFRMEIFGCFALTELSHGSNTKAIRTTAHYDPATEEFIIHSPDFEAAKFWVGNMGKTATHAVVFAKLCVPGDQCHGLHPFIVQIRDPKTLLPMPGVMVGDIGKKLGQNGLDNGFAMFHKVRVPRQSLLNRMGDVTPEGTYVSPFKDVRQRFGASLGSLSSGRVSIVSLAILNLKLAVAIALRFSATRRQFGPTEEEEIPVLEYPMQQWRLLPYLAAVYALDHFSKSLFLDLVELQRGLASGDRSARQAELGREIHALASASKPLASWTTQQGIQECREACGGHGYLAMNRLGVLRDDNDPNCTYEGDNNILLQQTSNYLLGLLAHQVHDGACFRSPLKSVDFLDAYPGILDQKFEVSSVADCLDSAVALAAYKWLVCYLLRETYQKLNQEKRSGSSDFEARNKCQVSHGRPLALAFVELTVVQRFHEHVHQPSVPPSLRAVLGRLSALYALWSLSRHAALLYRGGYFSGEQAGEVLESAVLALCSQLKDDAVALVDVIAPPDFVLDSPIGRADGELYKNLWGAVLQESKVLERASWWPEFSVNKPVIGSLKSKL

For assay [2], the target named is T2, Serine/threonine-protein kinase TBK1 (Homo sapiens, UniProt Q9UHD2).
T2 sequence (Q9UHD2 whole entry): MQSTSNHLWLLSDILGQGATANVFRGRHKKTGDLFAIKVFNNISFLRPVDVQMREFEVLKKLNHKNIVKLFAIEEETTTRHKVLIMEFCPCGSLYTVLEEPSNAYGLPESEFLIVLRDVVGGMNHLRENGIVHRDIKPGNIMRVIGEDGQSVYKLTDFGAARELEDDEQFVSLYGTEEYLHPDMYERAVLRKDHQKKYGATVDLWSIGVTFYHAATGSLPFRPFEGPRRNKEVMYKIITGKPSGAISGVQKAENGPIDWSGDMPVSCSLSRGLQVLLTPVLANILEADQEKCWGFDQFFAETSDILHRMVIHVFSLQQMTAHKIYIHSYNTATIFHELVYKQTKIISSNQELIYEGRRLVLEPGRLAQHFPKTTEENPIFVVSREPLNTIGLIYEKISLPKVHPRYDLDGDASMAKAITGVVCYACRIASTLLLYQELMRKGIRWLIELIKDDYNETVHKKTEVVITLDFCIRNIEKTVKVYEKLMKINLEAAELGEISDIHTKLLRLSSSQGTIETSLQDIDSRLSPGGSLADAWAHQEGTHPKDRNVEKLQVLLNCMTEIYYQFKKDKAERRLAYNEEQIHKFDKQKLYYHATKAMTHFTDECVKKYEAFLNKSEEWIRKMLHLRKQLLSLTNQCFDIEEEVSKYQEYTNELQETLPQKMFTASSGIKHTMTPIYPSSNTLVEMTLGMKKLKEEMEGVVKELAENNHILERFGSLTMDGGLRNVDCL

The target in assay [3] is Calcium/calmodulin-dependent protein kinase type II subunit gamma (Homo sapiens, UniProt Q13555).
Chain of Calcium/calmodulin-dependent protein kinase type II subunit gamma (Q13555 whole entry): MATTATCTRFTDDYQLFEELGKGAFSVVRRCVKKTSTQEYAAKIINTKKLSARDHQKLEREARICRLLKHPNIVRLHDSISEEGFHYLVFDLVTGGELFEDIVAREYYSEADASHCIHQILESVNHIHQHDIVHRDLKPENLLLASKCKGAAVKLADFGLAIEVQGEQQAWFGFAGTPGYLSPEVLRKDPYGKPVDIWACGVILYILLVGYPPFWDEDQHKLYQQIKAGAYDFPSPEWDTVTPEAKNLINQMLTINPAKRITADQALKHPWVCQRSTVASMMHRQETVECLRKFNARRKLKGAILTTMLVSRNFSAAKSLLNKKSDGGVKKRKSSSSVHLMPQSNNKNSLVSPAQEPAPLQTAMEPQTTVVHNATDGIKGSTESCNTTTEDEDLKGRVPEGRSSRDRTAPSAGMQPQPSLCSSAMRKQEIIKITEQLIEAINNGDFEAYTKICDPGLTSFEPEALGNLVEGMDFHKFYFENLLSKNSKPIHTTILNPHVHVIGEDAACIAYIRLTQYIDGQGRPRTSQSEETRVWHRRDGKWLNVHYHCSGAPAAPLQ
Assay [4] concerns the target T3, Ribosyldihydronicotinamide dehydrogenase [quinone] (Homo sapiens, UniProt P16083).
T3 sequence (P16083 whole entry): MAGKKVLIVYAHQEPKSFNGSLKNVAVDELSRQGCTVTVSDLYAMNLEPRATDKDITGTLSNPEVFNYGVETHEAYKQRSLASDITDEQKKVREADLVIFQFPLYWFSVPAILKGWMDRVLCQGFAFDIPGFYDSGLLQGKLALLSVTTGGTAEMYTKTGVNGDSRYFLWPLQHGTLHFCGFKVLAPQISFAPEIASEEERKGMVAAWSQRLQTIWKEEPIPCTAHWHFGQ

In assay [5] the target is Serine/threonine-protein kinase SIK2 (Homo sapiens, UniProt Q9H0K1).
Chain of Serine/threonine-protein kinase SIK2 (Q9H0K1 whole entry): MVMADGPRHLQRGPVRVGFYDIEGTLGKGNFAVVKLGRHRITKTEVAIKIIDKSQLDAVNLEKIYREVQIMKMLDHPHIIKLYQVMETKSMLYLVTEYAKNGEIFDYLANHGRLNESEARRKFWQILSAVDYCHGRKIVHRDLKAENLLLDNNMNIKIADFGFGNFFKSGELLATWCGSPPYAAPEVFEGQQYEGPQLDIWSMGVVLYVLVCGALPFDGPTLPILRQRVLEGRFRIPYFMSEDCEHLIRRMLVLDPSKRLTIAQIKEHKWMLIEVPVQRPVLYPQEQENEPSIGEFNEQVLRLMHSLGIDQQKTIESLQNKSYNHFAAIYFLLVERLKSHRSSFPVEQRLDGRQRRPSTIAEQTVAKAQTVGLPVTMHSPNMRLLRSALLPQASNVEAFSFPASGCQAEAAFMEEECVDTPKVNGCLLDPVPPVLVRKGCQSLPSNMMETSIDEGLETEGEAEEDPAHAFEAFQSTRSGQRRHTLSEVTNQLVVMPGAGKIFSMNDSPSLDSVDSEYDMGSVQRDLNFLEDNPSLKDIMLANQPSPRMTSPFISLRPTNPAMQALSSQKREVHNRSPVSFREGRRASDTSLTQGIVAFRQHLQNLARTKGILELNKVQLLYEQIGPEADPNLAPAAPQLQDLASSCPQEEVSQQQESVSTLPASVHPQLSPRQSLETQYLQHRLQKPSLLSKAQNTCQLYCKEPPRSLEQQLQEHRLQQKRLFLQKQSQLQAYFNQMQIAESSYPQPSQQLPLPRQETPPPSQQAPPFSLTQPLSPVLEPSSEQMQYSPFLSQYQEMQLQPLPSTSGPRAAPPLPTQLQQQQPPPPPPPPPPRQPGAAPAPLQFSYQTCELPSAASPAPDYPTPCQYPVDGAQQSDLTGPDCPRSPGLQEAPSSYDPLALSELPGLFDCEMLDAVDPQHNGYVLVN
Assay [6] concerns the target Elongation factor Tu, mitochondrial (Homo sapiens, UniProt P49411).
The next assay deals with Insulin receptor (Homo sapiens, UniProt P06213).
Chain of Insulin receptor (P06213 28-758 limits assumed): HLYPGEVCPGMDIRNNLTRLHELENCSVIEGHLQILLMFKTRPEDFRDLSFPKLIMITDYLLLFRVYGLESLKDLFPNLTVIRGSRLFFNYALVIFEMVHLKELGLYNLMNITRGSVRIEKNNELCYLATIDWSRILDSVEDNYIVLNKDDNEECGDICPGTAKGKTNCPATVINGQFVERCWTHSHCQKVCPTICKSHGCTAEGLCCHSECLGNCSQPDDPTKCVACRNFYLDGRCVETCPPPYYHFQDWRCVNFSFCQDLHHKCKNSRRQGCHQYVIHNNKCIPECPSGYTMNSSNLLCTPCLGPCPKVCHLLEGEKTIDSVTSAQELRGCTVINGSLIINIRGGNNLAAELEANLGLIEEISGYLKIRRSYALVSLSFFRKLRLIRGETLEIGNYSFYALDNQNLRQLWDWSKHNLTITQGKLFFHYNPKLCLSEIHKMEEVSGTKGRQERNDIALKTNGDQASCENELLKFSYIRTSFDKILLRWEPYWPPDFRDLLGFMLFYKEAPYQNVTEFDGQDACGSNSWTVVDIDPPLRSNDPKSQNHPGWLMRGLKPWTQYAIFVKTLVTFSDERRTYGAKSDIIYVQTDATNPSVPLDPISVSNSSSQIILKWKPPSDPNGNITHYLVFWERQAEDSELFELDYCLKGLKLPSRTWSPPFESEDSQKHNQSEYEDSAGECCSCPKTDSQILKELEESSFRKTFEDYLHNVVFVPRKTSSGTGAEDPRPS
Chain of Insulin receptor (P06213 763-1382 limits assumed): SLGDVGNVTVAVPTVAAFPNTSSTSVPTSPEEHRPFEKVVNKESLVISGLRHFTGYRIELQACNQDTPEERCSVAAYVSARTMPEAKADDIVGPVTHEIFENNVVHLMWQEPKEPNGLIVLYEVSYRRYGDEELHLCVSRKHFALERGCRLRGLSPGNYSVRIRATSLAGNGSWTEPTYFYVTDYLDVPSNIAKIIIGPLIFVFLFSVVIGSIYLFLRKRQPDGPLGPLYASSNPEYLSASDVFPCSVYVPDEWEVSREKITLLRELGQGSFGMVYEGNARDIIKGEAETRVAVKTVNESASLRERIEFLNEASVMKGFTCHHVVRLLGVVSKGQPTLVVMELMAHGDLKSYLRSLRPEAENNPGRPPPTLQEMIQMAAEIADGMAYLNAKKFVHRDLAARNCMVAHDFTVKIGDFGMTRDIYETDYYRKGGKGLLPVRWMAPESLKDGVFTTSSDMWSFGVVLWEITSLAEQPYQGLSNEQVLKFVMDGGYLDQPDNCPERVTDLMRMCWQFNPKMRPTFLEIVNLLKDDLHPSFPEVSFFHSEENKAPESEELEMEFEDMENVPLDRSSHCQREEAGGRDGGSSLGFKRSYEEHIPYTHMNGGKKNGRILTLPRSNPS
The target in the next assay is Midasin (Homo sapiens, UniProt Q9NU22).
The target of assay [7] is T4, Dynamin-like GTPase OPA1, mitochondrial (Homo sapiens, UniProt O60313).
T4 sequence (O60313 whole entry): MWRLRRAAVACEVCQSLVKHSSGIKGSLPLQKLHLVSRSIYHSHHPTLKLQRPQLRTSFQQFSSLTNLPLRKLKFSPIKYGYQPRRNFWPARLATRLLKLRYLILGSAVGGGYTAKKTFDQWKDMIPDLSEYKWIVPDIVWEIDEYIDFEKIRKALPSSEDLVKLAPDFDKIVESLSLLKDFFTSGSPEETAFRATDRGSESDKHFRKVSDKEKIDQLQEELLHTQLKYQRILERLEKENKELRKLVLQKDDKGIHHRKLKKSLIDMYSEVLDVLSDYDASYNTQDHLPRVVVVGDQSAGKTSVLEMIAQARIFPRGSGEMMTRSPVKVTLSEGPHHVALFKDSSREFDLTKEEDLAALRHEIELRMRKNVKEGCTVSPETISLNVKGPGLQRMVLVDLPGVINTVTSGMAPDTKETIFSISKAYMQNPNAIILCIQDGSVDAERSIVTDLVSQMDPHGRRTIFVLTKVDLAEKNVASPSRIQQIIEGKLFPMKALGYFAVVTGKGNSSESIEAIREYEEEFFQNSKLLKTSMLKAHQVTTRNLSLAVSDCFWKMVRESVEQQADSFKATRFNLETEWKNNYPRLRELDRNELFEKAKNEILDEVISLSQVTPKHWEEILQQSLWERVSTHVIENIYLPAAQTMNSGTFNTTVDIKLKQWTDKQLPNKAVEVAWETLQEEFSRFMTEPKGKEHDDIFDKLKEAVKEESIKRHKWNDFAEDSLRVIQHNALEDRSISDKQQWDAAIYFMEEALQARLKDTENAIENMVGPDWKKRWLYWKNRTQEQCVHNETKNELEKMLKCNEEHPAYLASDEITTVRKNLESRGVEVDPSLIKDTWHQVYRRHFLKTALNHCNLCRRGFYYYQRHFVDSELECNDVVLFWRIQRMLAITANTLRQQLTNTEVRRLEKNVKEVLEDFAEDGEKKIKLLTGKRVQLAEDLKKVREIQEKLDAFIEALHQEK
Further: in the data inactive means no Kd found up to 30 µM.

Turning to `COc1cc2nccc(Oc3ccc(NC(=O)NC4CC4)c(Cl)c3)c2cc1C(N)=O` [LENVATINIB], the Kd (in general, the constant that tells how readily two partners part at equilibrium) is > 30 µM (inactive) in assay [1]; > 30 µM (inactive) in assay [2]; > 30 µM (inactive) in assay [3]; 1.52 µM (active) in [4]; > 30 µM (inactive) in assay [5]; > 30 µM (inactive) in assay [6]. The Kd (on Insulin receptor; on Midasin; in assay [7]) was > 30 µM (inactive) throughout.

On to `CO[C@H]1C[C@@H]2CC[C@@H](C)[C@@](O)(O2)C(=O)C(=O)N2CCCC[C@H]2C(=O)O[C@H]([C@H](C)C[C@@H]2CC[C@@H](OCCO)[C@H](OC)C2)CC(=O)[C@H](C)/C=C(\C)[C@@H](O)[C@@H](OC)C(=O)[C@H](C)C[C@H](C)/C=C/C=C/C=C/1C` [EVEROLIMUS], for which the Kd in assay [1], in assay [2], in assay [3], in [4], in assay [5] and in [6] was > 30 µM (inactive) throughout. In addition, the Kd (at Insulin receptor; on Midasin; in assay [7]) was > 30 µM (inactive) throughout.

With `Cc1ccc(NC(=O)c2ccc(CN3CC[C@H](N(C)C)C3)c(C(F)(F)F)c2)cc1Nc1nccc(-c2cncnc2)n1` [BAFETINIB], the Kd was > 30 µM (inactive) in assay [1]; > 30 µM (inactive) in [2]; > 30 µM (inactive) in [3]; 6.87 µM in assay [4]; > 30 µM (inactive) in assay [5]; > 30 µM (inactive) in [6]. In addition, the Kd (on Insulin receptor; at Midasin; in assay [7]) was > 30 µM (inactive) each time.

`CC(C)Nc1cc(-c2c[nH]c(C(=O)N[C@H](CO)c3cccc(Cl)c3)c2)c(Cl)cn1` [ULIXERTINIB]: the Kd in assay [1], in assay [2], in [3], in [4], in [5] and in assay [6] was > 30 µM (inactive) each time. Also, the Kd (on Insulin receptor; at Midasin; in assay [7]) was > 30 µM (inactive) in each case.

Turning to `O=C1NC(=O)/C(=C/c2ccc3nccc(-c4ccncc4)c3c2)S1` [GSK-1059615], the Kd in [1], in [2], in assay [3], in assay [4], in [5] and in assay [6] was > 30 µM (inactive) throughout. Besides, the Kd (at Insulin receptor; in assay [7]) was > 30 µM (inactive) throughout.

With `COc1cc(CCc2cc(NC(=O)c3ccc(N4C[C@@H](C)N[C@@H](C)C4)cc3)n[nH]2)cc(OC)c1` [AZD-4547], the Kd in assay [1], in [2], in assay [3], in assay [4], in assay [5] and in assay [6] was > 30 µM (inactive) throughout. Besides, the Kd (at Insulin receptor; at Midasin; in assay [7]) was > 30 µM (inactive) throughout.

With `C[C@@H]1CN(Cc2ccc(F)cc2)[C@@H](C)CN1C(=O)c1cc2c(C(=O)C(=O)N(C)C)cn(C)c2cc1Cl` [TALMAPIMOD], the Kd in assay [1] was > 30 µM (inactive); in [2], > 30 µM (inactive); in [3], > 30 µM (inactive); in [4], 9.92 µM (active); in assay [5], > 30 µM (inactive); in assay [6], > 30 µM (inactive). The Kd (at Insulin receptor; at Midasin; in assay [7]) was > 30 µM (inactive) throughout.

Consider `CCS(=O)(=O)N1CC(CC#N)(n2cc(-c3ncnc4[nH]ccc34)cn2)C1` [BARICITINIB], for which the Kd is > 30 µM (inactive) in assay [1]; > 30 µM (inactive) in assay [2]; 0.243 µM (active) in assay [3]; > 30 µM (inactive) in assay [4]; > 30 µM (inactive) in [5]; > 30 µM (inactive) in assay [6]. Further, the Kd (on Insulin receptor; on Midasin; in assay [7]) was > 30 µM (inactive) throughout.

Regarding `COc1ccc(-c2ccc3c(N4CCOC[C@@H]4C)nc(N4CCOC[C@@H]4C)nc3n2)cc1CO` [AZD-8055], the Kd in [1], in [2], in assay [3], in [4], in assay [5] and in assay [6] was > 30 µM (inactive) throughout. The Kd (on Insulin receptor; at Midasin; in assay [7]) was > 30 µM (inactive) each time.

Regarding `CN1CC[C@@H](c2c(O)cc(O)c3c(=O)cc(-c4ccccc4Cl)oc23)[C@@H]1CO`, the Kd in assay [1] is > 30 µM (inactive); in [2] it was > 30 µM (inactive); in [3], 1.34 µM (active); in assay [4] it was > 30 µM (inactive); in [5], > 30 µM (inactive); in assay [6] it was > 30 µM (inactive). The Kd (on Insulin receptor; at Midasin; in assay [7]) was > 30 µM (inactive) each time.

`C1=C/COCc2cc(ccc2OCCN2CCCC2)Nc2nccc(n2)-c2cccc(c2)COC/1` [PACRITINIB]: the Kd in [1] is > 30 µM (inactive); in [2], 49.6 µM (active); in assay [3], > 30 µM (inactive); in assay [5], > 30 µM (inactive); in assay [6], > 30 µM (inactive); at Insulin receptor, > 30 µM (inactive). In addition, the Kd (at Midasin; in [7]) was > 30 µM (inactive) in each case.
